Patent US8420657B2 (Novartis AG, priority 2008, dated 2013)

What was measured:
GST-JAK2(808-1132) = molecular target: T1, GST-JAK2(808-1132) (Homo sapiens, UniProt O60674); experiment: JAK2 kinase assay (Caliper mobility shift, LabChip 3000); format: biochemical
T1 construct: GST-JAK2(808-1132); purchased Invitrogen (Carlsbad, USA) #4288
Summary of the method: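 Recombinant GST-JAK2(808-1132) kinase domain with FITC-labelled JAK3tide peptide substrate and ATP; 60 min at 30 °C, EDTA stop. Substrate/product ratio read by microfluidic mobility shift; compounds at 8 final concentrations, 10 to 0.003 μM.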

[1] = system: JAK1/JAK2-dependent nuclear translocation of STAT1-GFP in HT1080 fibrosarcoma cells; experiment: STAT1 nuclear translocation assay (Cellomics), IFN-γ stimulated HT1080 STAT1-GFP cells; format: cell-based; conditions: Homo sapiens, HT-1080, STAT1 translocation pathway
Summary of the method: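 HT1080 cells stably expressing STAT1-GFP, pre-treated 30 min with compound (10 μM–0.003 μM, 0.1% DMSO), then stimulated 2 h with 100 ng/ml IFN-γ, fixed and Hoechst-stained. Nuclear-cytoplasmic GFP differential imaged over ≥1000 cells/well, normalised to unstimulated and DMSO-stimulated wells for IC50.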

T1 sequence (O60674 808-1132): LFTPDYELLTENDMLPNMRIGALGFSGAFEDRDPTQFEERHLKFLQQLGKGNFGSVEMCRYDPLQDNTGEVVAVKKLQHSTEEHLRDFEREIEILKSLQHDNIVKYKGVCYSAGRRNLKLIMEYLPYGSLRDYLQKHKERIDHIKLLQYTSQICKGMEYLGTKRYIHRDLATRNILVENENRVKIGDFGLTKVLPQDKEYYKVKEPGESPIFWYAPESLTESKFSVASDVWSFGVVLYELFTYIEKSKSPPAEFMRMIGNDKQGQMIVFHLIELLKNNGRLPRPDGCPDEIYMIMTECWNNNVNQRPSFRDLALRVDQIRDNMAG

| IC50 (GST-JAK2(808-1132)) | IC50 [1] | SMILES |
| --- | --- | --- |
| 5.9 nM | 728 nM | Cc1cc(Nc2ncc3ccn(-c4cc(F)c(C(=O)N5CCOCC5)c(F)c4)c3n2)ccc1F [Example 213, {2,6-Difluoro-4-[2-(4-fluoro-3-methyl-phenylamino)-pyrrolo[2,3-d]pyrimidin-7-yl]-phenyl}-morpholin-4-yl-methanone] |
| 5.1 nM | 643 nM | O=C(c1c(F)cc(-n2ccc3cnc(Nc4ccccc4)nc32)cc1F)N1CCOCC1 [Example 214, [2,6-Difluoro-4-(2-phenylamino-pyrrolo[2,3-d]pyrimidin-7-yl)-phenyl]-morpholin-4-yl-methanone] |
| 420 nM | 10000 nM | O=C(c1c(F)cc(-n2ccc3cnc(Nc4ccccn4)nc32)cc1F)N1CCOCC1 [Example 215, {2,6-Difluoro-4-[2-(pyridin-2-ylamino)-pyrrolo[2,3-d]pyrimidin-7-yl]-phenyl}-morpholin-4-yl-methanone] |
| 3.3 nM | 579 nM | O=C(c1c(F)cc(-n2ccc3cnc(Nc4cccnc4)nc32)cc1F)N1CCOCC1 [Example 216, {2,6-Difluoro-4-[2-(pyridin-3-ylamino)-pyrrolo[2,3-d]pyrimidin-7-yl]-phenyl}-morpholin-4-yl-methanone] |
| 7.3 nM | 993 nM | O=C(c1c(F)cc(-n2ccc3cnc(Nc4ccncc4)nc32)cc1F)N1CCOCC1 [Example 217, {2,6-Difluoro-4-[2-(pyridin-4-ylamino)-pyrrolo[2,3-d]pyrimidin-7-yl]-phenyl}-morpholin-4-yl-methanone] |
| 1050 nM | 10000 nM | O=C(c1c(F)cc(-n2ccc3cnc(Nc4ccncn4)nc32)cc1F)N1CCOCC1 [Example 218, {2,6-Difluoro-4-[2-(pyrimidin-4-ylamino)-pyrrolo[2,3-d]pyrimidin-7-yl]-phenyl}-morpholin-4-yl-methanone] |
| 7.7 nM | 518 nM | Cc1ccc(Nc2ncc3ccn(-c4cc(F)c(C(=O)N5CCOCC5)c(F)c4)c3n2)cn1 [Example 219, {2,6-Difluoro-4-[2-(6-methyl-pyridin-3-ylamino)-pyrrolo[2,3-d]pyrimidin-7-yl]-phenyl}-morpholin-4-yl-methanone] |
| 11 nM | 880 nM | COc1ccc(Nc2ncc3ccn(-c4cc(F)c(C(=O)N5CCOCC5)c(F)c4)c3n2)cn1 [Example 220] |
| 8.5 nM | 1080 nM | O=C(c1ccc(-n2ccc3cnc(Nc4cccnc4)nc32)cc1F)N1CCOCC1 [Example 224, {2-Fluoro-4-[2-(pyridin-3-ylamino)-pyrrolo[2,3-d]pyrimidin-7-yl]-phenyl}-morpholin-4-yl-methanone] |

Second part, the compound before the results:

| SMILES | IC50 (GST-JAK2(808-1132)) | IC50 [1] |
| --- | --- | --- |
| CN1CCN(C(=O)c2ccc(Nc3ncc4ccn(-c5cc(F)c(CN6CCS(=O)(=O)CC6)c(F)c5)c4n3)cc2C(F)(F)F)CC1 [Example 186, (4-{7-[4-(1,1-Dioxido-thiomorpholin-4-ylmethyl)-3,5-difluoro-phenyl]-7H-pyrrolo[2,3-d]pyrimidin-2-ylamino}-2-trifluoromethyl-phenyl)-(4-methyl-piperazin-1-yl)-methanone] | < 3 nM | 95 nM |
| O=C(c1ccc(Nc2ncc3ccn(-c4cc(F)c(CN5CCS(=O)(=O)CC5)c(F)c4)c3n2)cc1)N1CCOCC1 [Example 187, (4-{7-[4-(1,1-Dioxido-thiomorpholin-4-ylmethyl)-3,5-difluoro-phenyl]-7H-pyrrolo[2,3-d]pyrimidin-2-ylamino}-phenyl)-morpholin-4-yl-methanone] | < 3 nM | 55 nM |
| CCN1CCN(Cc2ccc(Nc3ncc4ccn(-c5cc(F)c(CN6CCS(=O)(=O)CC6)c(F)c5)c4n3)cc2)CC1 [Example 188, {7-[4-(1,1-Dioxido-thiomorpholin-4-ylmethyl)-3,5-difluoro-phenyl]-7H-pyrrolo[2,3-d]pyrimidin-2-yl}-[4-(4-ethyl-piperazin-1-ylmethyl)-phenyl]-amine] | < 3 nM | 60 nM |
| COCc1ccc(Nc2ncc3ccn(-c4cc(F)c(C(=O)N5CCN(C)CC5)c(F)c4)c3n2)cc1 [Example 189, {2,6-Difluoro-4-[2-(4-methoxymethyl-phenylamino)-pyrrolo[2,3-d]pyrimidin-7-yl]-phenyl}-(4-methyl-piperazin-1-yl)-methanone] | 9.5 nM | 846 nM |
| CN1CCN(C(=O)c2c(F)cc(-n3ccc4cnc(Nc5ccc(CN6CCS(=O)(=O)CC6)cc5)nc43)cc2F)CC1 [Example 190, (4-{2-[4-(1,1-Dioxido-thiomorpholin-4-ylmethyl)-phenylamino]-pyrrolo[2,3-d]pyrimidin-7-yl}-2,6-difluoro-phenyl)-(4-methyl-piperazin-1-yl)-methanone] | 5.2 nM | 439 nM |
| CCN1CCN(Cc2ccc(Nc3ncc4ccn(-c5cc(F)c(C(=O)N6CCN(C)CC6)c(F)c5)c4n3)cc2)CC1 [Example 191, (4-{2-[4-(4-Ethyl-piperazin-1-ylmethyl)-phenylamino]-pyrrolo[2,3-d]pyrimidin-7-yl}-2,6-difluoro-phenyl)-(4-methyl-piperazin-1-yl)-methanone] | 28.5 nM | 3920 nM |
| CN1CCN(C(=O)c2c(F)cc(-n3ccc4cnc(Nc5ccc(CN6CCOCC6)cc5)nc43)cc2F)CC1 [Example 192, {2,6-Difluoro-4-[2-(4-morpholin-4-ylmethyl-phenylamino)-pyrrolo[2,3-d]pyrimidin-7-yl]-phenyl}-(4-methyl-piperazin-1-yl)-methanone] | 11.5 nM | 1490 nM |
| CC(C)Oc1ccc(Nc2ncc3ccn(-c4cc(F)c(CN5CCS(=O)(=O)CC5)c(F)c4)c3n2)cc1 [Example 194, {7-[4-(1,1-Dioxido-thiomorpholin-4-ylmethyl)-3,5-difluoro-phenyl]-7H-pyrrolo[2,3-d]pyrimidin-2-yl}-(4-isopropoxy-phenyl)-amine] | < 3 nM | 202 nM |
| O=C(c1ccc(Nc2ncc3ccn(-c4cc(F)c(CN5CCOCC5)c(F)c4)c3n2)cn1)N1CCOCC1 [Example 195, {5-[7-(3,5-Difluoro-4-morpholin-4-ylmethyl-phenyl)-7H-pyrrolo[2,3-d]pyrimidin-2-ylamino]-pyridin-2-yl}-morpholin-4-yl-methanone] | 5.3 nM | 352 nM |
| CCN1CCN(Cc2ccc(Nc3ncc4ccn(-c5cc(F)c(CN6CCOCC6)c(F)c5)c4n3)cc2)CC1 [Example 196, [7-(3,5-Difluoro-4-morpholin-4-ylmethyl-phenyl)-7H-pyrrolo[2,3-d]pyrimidin-2-yl]-[4-(4-ethyl-piperazin-1-ylmethyl)-phenyl]-amine] | < 3 nM | 176 nM |
| Fc1cc(-n2ccc3cnc(Nc4ccc(CN5CCOCC5)cc4)nc32)cc(F)c1CN1CCOCC1 [Example 197, [7-(3,5-Difluoro-4-morpholin-4-ylmethyl-phenyl)-7H-pyrrolo[2,3-d]pyrimidin-2-yl]-(4-morpholin-4-ylmethyl-phenyl)-amine] | < 3 nM | 90 nM |
| CN1CCN(Cc2cccc(Nc3ncc4ccn(-c5cc(F)c(CN6CCOCC6)c(F)c5)c4n3)c2)CC1 [Example 199, [7-(3,5-Difluoro-4-morpholin-4-ylmethyl-phenyl)-7H-pyrrolo[2,3-d]pyrimidin-2-yl]-[3-(4-methyl-piperazin-1-ylmethyl)-phenyl]-amine] | < 3 nM | 222 nM |
| CN1CCN(C(=O)c2ccc(Nc3ncc4ccn(-c5cc(F)c(CN6CCOCC6)c(F)c5)c4n3)cc2C(F)(F)F)CC1 [Example 201, {4-[7-(3. 5-Difluoro-4-morpholin-4-ylmethyl-phenyl)-7H-pyrrolo[2,3-d]pyrimidin-2-ylamino]-2-trifluoromethyl-phenyl}-(4-methyl-piperazin-1-yl)-methanone] | < 3 nM | 199 nM |
| O=C(c1cccc(Nc2ncc3ccn(-c4cc(F)c(CN5CCOCC5)c(F)c4)c3n2)c1)N1CCOCC1 [Example 202, {3-[7-(3 5-Difluoro-4-morpholin-4-ylmethyl-phenyl)-7H-pyrrolo[2,3-d]pyrimidin-2-ylamino]-phenyl}-morpholin-4-yl-methanone] | 4.5 nM | 198 nM |
| Fc1cc(-n2ccc3cnc(Nc4ccccc4)nc32)cc(F)c1CN1CCOCC1 [Example 208, [7-(3,5-Difluoro-4-morpholin-4-ylmethyl-phenyl)-7H-pyrrolo[2,3-d]pyrimidin-2-yl]-phenyl-amine] | 4.8 nM | 442 nM |
| Cc1ccc(Nc2ncc3ccn(-c4ccc(CC(=O)N5CCN(CCO)CC5)cc4)c3n2)cc1C [Example 212, 2-{4-[2-(3,4-Dimethyl-phenylamino)-pyrrolo[2,3-d]pyrimidin-7-yl]-phenyl}-1-[4-(2-hydroxy-ethyl)-piperazin-1-yl]-ethanone] | < 3 nM | 106 nM |
| CN1CCN(c2ccc(Nc3ncc4ccn(-c5cc(F)c(C(=O)N6CCOCC6)c(F)c5)c4n3)cn2)CC1 [Example 221] | 4.7 nM | 360 nM |
| Cc1ccc(Nc2ncc3ccn(-c4ccc(C(=O)N5CCOCC5)c(F)c4)c3n2)cn1 [Example 223] | 9.2 nM | 455 nM |
| COc1ccc(Nc2ncc3ccn(-c4ccc(C(=O)N5CCOCC5)c(F)c4)c3n2)cn1 [Example 225, {2-Fluoro-4-[2-(6-methoxy-pyridin-3-ylamino)-pyrrolo[2,3-d]pyrimidin-7-yl]-phenyl}-morpholin-4-yl-methanone] | 7.4 nM | 434 nM |
| CC(C)Oc1ccc(Nc2ncc3ccn(-c4ccc(C(=O)N5CCOCC5)c(F)c4)c3n2)cn1 [Example 226, {2-Fluoro-4-[2-(6-isopropoxy-pyridin-3-ylamino)-pyrrolo[2,3-d]pyrimidin-7-yl]-phenyl}-morpholin-4-yl-methanone] | 10.5 nM | 666 nM |
